Data reported in patent US9617256B2 (priority 2007, dated 2017).
Values after ≈ are worked out from the molar mass of the structure shown.

Experiments:
[1] = system: AABA1060 (clinical isolate of Acinetobacter baumannii); assay: MIC broth microdilution, AABA1060; assay type: cell-based; settings: for MIC: Acinetobacter baumannii, read-out: MIC AABA1060
Method in brief: (§1)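 Inocula prepared from 0.5 McFarland suspensions (final 3×10^5–7×10^5 CFU/mL) were added to 2-fold drug dilution series in cation-adjusted Mueller-Hinton broth. Plates stood 18-24 hours at 35° C. under ambient air.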

[2] = system: APAE006 (strain of P. aeruginosa in which all efflux pumps are inactivated); assay: microbe, parasite or virus in culture; assay type: cell-based; settings: for MIC: Pseudomonas aeruginosa, read-out: MIC APAE006, P. aeruginosa, all efflux pumps inactivated
Method in brief: (§2)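 Broth microdilution (CLSI); CA-MHB; 3×10^5–7×10^5 CFU/mL final; 2-fold dilutions; 35° C., ambient air, 18-24 h. APAE006 lacks all active efflux pumps.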

[3] = system: AECO001 HSA AGP; assay: MIC broth microdilution, AECO001 HSA AGP; assay type: cell-based, E. coli; settings: for MIC: Escherichia coli
Experimental: Bacterial isolates were cultivated from −70° C. frozen stocks by overnight passages at 35° C. in ambient air on Mueller-Hinton agar (Beckton Dickinson, Franklin Lakes, N.J.). Clinical isolates tested were obtained from various geographically diverse hospitals in the US and abroad (Focus Diagnostics, Herndon, Va. and JMI, North Liberty, Iowa). Quality control strains were from the American Type Culture Collection (ATCC; Rockville, Md.). Additional primary panel strains were generated using standard molecular biology techniques.
Minimum Inhibitory Concentrations (MICs) were determined by the broth microdilution method in accordance with the Clinical and Laboratory Standards Institute (CLSI) guidelines. In brief, organism suspensions were adjusted to a 0.5 McFarland standard to yield a final inoculum between 3×10^5 and 7×10^5 colony-forming units (CFU)/mL. Drug dilutions and inocula were made in sterile, cation adjusted Mueller-Hinton Broth (Beckton Dickinson). An inoculum volume of 100 μL was added to wells containing 100 μL of broth with 2-fold serial dilutions of drug. All inoculated microdilution trays were incubated in ambient air at 35° C. for 18-24 hours. […] Performance of the assay was monitored by the use of laboratory quality-control strains and levofloxacin, a compound with a defined MIC spectrum, in accordance with CLSI guidelines.
*AECO001 is ATCC25922, AECO063 is ATCC25922 bearing an acrAB mutation, APAE001 is ATCC27853, APAE006 is a strain of P. aeruginosa in which all efflux pumps are inactivated, APAE006+PMBN indicates MICs with the indicated strain in the presence of 8 micrograms per milliliter of polymyxin B nonapeptide, AABA1060 is a clinical isolate of Acinetobacter baumannii, ASAU001 is a laboratory strain of S. aureus (ATCC29213).

[4] = system: AECO001 (ATCC25922); assay: MIC broth microdilution, AECO001; assay type: cell-based, E. coli; settings: for MIC: Escherichia coli, ATCC25922, read-out: MIC AECO001
Method in brief: as §1

[5] = system: APAE006 in the presence of 8 micrograms per milliliter of polymyxin B nonapeptide; assay type: cell-based, P. aeruginosa; settings: in the presence of 8 micrograms per milliliter of polymyxin B nonapeptide
Method in brief: as §2

[6] = system: APAE001 (ATCC27853); assay: MIC broth microdilution, APAE001; assay type: cell-based, P. aeruginosa; settings: for MIC: Pseudomonas aeruginosa, ATCC27853, read-out: MIC APAE001, APAE001 is ATCC27853
Method in brief: as §1

[7] = system: ASAU001 (laboratory strain of S. aureus, ATCC29213); assay: MIC broth microdilution, ASAU001; assay type: cell-based; settings: for MIC: Staphylococcus aureus, ATCC29213, read-out: MIC ASAU001
Method in brief: as §1

[8] = system: AECO063 (ATCC25922 bearing an acrAB mutation); assay: microbe, parasite or virus in culture; assay type: cell-based, E. coli; settings: for MIC: Escherichia coli, ATCC25922, read-out: MIC AECO063
Method in brief: as §1

O=C(NC(C(=O)NO)C1CCNC1)c1ccc(C#Cc2ccc(CN3CCOCC3)cc2)cc1 (centres unmarked) [Example 64-7, N-(hydroxycarbamoyl-pyrrolidin-3-yl-methyl)-4-(4-morpholin-4-ylmethyl-phenylethynyl)-benzamide]
MIC [1]: 16 to 64 µg/mL (≈ 34.6 to 138 µM)
MIC [2]: < 2 µg/mL
MIC [3]: 16 to 64 µg/mL (≈ 34.6 to 138 µM)
MIC [4]: 2 to 16 µg/mL (≈ 4.32 to 34.6 µM)
MIC APAE006 + PMBN [5]: A (MIC's of 2.0 μg/mL or less = A)
MIC [6]: 2 to 16 µg/mL (≈ 4.32 to 34.6 µM)
MIC [7]: > 64 µg/mL
MIC [8]: < 2 µg/mL

C[C@@H](O)[C@H](NC(=O)c1ccc(N2CCC(c3ccc(CN4CCOCC4)cc3)CC2)cc1)C(=O)NO [Example 42-7, N-((1S,2R)-2-Hydroxy-1-hydroxycarbamoyl-propyl)-4-[4-(4-morpholin-4-ylmethyl-phenyl)-piperidin-1-yl]-benzamide]
MIC [1]: 16 to 64 µg/mL (≈ 32.2 to 129 µM)
MIC [2]: < 2 µg/mL
MIC [3]: 16 to 64 µg/mL (≈ 32.2 to 129 µM)
MIC [4]: 16 to 64 µg/mL (≈ 32.2 to 129 µM)
MIC APAE006 + PMBN [5]: A (MIC's of 2.0 μg/mL or less = A)
MIC [6]: 16 to 64 µg/mL (≈ 32.2 to 129 µM)
MIC [7]: > 64 µg/mL
MIC [8]: 16 to 64 µg/mL (≈ 32.2 to 129 µM)

C[C@@H](N)[C@H](NC(=O)c1ccc(C#Cc2ccc(CNCc3nccn3C)cc2)cc1)C(=O)NO [Example 119-3]
MIC [1]: 16 to 64 µg/mL (≈ 34.7 to 139 µM)
MIC [2]: < 2 µg/mL
MIC [3]: 2 to 16 µg/mL (≈ 4.34 to 34.7 µM)
MIC [4]: 2 to 16 µg/mL (≈ 4.34 to 34.7 µM)
MIC APAE006 + PMBN [5]: A (MIC's of 2.0 μg/mL or less = A)
MIC [6]: 2 to 16 µg/mL (≈ 4.34 to 34.7 µM)
MIC [7]: > 64 µg/mL
MIC [8]: < 2 µg/mL

C[C@@H](N)[C@H](NC(=O)c1ccc(C#CC#Cc2ccccn2)cc1)C(=O)NO [Example 88-4]
MIC [1]: 16 to 64 µg/mL (≈ 44.2 to 177 µM)
MIC [2]: < 2 µg/mL
MIC [3]: 16 to 64 µg/mL (≈ 44.2 to 177 µM)
MIC [4]: 2 to 16 µg/mL (≈ 5.52 to 44.2 µM)
MIC APAE006 + PMBN [5]: A (MIC's of 2.0 μg/mL or less = A)
MIC [6]: < 2 µg/mL
MIC [7]: > 64 µg/mL
MIC [8]: < 2 µg/mL

C[C@@H](N)[C@H](NC(=O)c1ccc(CCc2ccc(CN3CCOCC3)cc2)cc1)C(=O)NO [Example 137-1]
MIC AABA1060 ([1]; clinical isolate of Acinetobacter baumannii): D (MIC's of greater than 64.0 μg/mL = D)
MIC APAE006 ([2]; P. aeruginosa, all efflux pumps inactivated): A (MIC's of 2.0 μg/mL or less = A)
MIC AECO001 HSA AGP [3]: B (MIC's of greater than 2.0 μg/mL to 16.0 μg/mL = B)
MIC AECO001 ([4]; AECO001 is ATCC25922): A (MIC's of 2.0 μg/mL or less = A)
MIC APAE001 ([6]; APAE001 is ATCC27853): B (MIC's of greater than 2.0 μg/mL to 16.0 μg/mL = B)
MIC ASAU001 ([7]; S. aureus ATCC29213): D (MIC's of greater than 64.0 μg/mL = D)
MIC AECO063 ([8]; ATCC25922 bearing an acrAB mutation): A (MIC's of 2.0 μg/mL or less = A)

CC(C)(O)[C@H](NC(=O)c1ccc(C#CC#Cc2cccnc2)cc1)C(=O)NO [Example 88-5]
MIC [1]: < 2 µg/mL
MIC [2]: < 2 µg/mL
MIC [3]: < 2 µg/mL
MIC [4]: < 2 µg/mL
MIC [6]: 2 to 16 µg/mL (≈ 5.3 to 42.4 µM)
MIC [7]: 16 to 64 µg/mL (≈ 42.4 to 170 µM)
MIC [8]: < 2 µg/mL

C[C@@H](O)[C@H](NC(=O)c1ccc(SCc2ccc(CN3CCOCC3)cc2)cc1)C(=O)NO [Example 46-4, N-((1S,2R)-2-Hydroxy-1-hydroxycarbamoyl-propyl)-4-(4-morpholin-4-ylmethyl-benzylsulfanyl)-benzamide]
MIC [1]: > 64 µg/mL
MIC [2]: < 2 µg/mL
MIC [3]: 16 to 64 µg/mL (≈ 34.8 to 139 µM)
MIC [4]: 16 to 64 µg/mL (≈ 34.8 to 139 µM)
MIC [6]: 16 to 64 µg/mL (≈ 34.8 to 139 µM)
MIC [7]: > 64 µg/mL
MIC [8]: 2 to 16 µg/mL (≈ 4.35 to 34.8 µM)

C[C@@H](O)[C@H](NC(=O)c1ccc(Sc2ccc(CN3CCOCC3)cc2)cc1)C(=O)NO [Example 47-5, N-((1S,2R)-2-hydroxy-1-hydroxycarbamoyl-propyl)-4-(4-morpholin-4-ylmethyl-phenylsulfanyl)-benzamide]
MIC [1]: > 64 µg/mL
MIC [2]: 16 to 64 µg/mL (≈ 35.9 to 144 µM)
MIC [3]: > 64 µg/mL
MIC [4]: > 64 µg/mL
MIC [6]: > 64 µg/mL
MIC [7]: > 64 µg/mL
MIC [8]: > 64 µg/mL

C[C@@H](O)[C@H](NC(=O)c1ccc(Cc2ccc(CN3CCOCC3)cc2)cc1)C(=O)NO [Example 48-5, N-((1S,2R)-2-Hydroxy-1-hydroxycarbamoyl-propyl)-4-(4-morpholin-4-ylmethyl-benzyl)-benzamide]
MIC [1]: > 64 µg/mL
MIC [2]: > 64 µg/mL
MIC [3]: > 64 µg/mL
MIC [4]: > 64 µg/mL
MIC [6]: > 64 µg/mL
MIC [7]: > 64 µg/mL
MIC [8]: > 64 µg/mL

CC(O)[C@H](NS(=O)(=O)c1ccc(C#Cc2ccc(CN3CCOCC3)cc2)cc1)C(=O)NO (some centres unmarked) [Example 62-7]
MIC [1]: 16 to 64 µg/mL (≈ 33.8 to 135 µM)
MIC [2]: 2 to 16 µg/mL (≈ 4.22 to 33.8 µM)
MIC [3]: 16 to 64 µg/mL (≈ 33.8 to 135 µM)
MIC [4]: 16 to 64 µg/mL (≈ 33.8 to 135 µM)
MIC [6]: > 64 µg/mL
MIC [7]: > 64 µg/mL
MIC [8]: 2 to 16 µg/mL (≈ 4.22 to 33.8 µM)
